Assay results taken from publication PMC10799918, “Revealing the mechanistic interactions of profenofos and captan pesticides with serum protein via biophysical and computational investigations” (Scientific Reports, 2024).

Molecular target: T1, bovine serum albumin (BSA) (Bos taurus, UniProt P02769)
T1 construct: gene ALB; PDB 4F5S used for docking only
Test: intrinsic fluorescence quenching (ex […] nm, em […] nm), double-logarithmic plot
Assay type: binding
Conditions: 310 K, pH 7.4, 10 mM Tris-HCl, 150 mM NaCl, 2 uM BSA, 0.1% acetonitrile, no site probe; double-log

T1 sequence (P02769 25-607): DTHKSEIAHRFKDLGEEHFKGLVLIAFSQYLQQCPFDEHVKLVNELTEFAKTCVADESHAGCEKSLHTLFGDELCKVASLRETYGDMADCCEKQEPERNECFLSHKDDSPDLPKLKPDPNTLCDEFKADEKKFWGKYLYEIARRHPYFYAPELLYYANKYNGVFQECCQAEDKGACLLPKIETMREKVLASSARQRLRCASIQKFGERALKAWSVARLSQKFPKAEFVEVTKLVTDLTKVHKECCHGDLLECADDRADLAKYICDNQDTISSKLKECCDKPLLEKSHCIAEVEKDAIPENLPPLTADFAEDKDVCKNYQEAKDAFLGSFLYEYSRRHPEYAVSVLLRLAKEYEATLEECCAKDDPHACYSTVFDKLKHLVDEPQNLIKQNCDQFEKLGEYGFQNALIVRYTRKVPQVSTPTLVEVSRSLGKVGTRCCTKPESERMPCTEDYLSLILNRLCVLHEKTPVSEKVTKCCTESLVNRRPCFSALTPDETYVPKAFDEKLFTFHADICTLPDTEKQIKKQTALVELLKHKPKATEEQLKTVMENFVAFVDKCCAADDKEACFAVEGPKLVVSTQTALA

Row | Compound | Ka (M^-1) | Ka [M⁻¹]
1 | O=C1C2CC=CCC2C(=O)N1SC(Cl)(Cl)Cl (centres unmarked) [compound 2, 2-(trichloromethylsulfanyl)-3a,4,7,7a-tetrahydroisoindole-1,3-dione] | 14,581 ± 1.40 M^-1 | –
2 | CCCSP(=O)(OCC)Oc1ccc(Br)cc1Cl (centres unmarked) [compound 1, 4-bromo-2-chloro-1-[ethoxy(propylsulfanyl)phosphoryl]oxybenzene] | – | 3897 ± 1.49
